Measurements as given in article PMC9481570, “A small molecule antagonist of SMN disrupts the interaction between SMN and RNAP II” (Nature Communications, 2022).
Where “and” joins values, the source holds several entries; their conditions need not be identical. Equal values may be shown once.

Key:
Experiment in all cases: Affinity-purification and mass spectrometry (AP-MS) chemical proteomics, all proteins;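 for Difference: 200 µM free competitor with 20 µM biotin probe overnight in lysate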
Type in all cases: binding
[1] = biological target: T1, proteins displaced from immobilized biotin-Cmpd 1 pulldowns (U2OS cell lysate) (Homo sapiens, UniProt Q96AG4); conditions: GN=LRRC59 (Q96AG4)
T1 construct: endogenous in cells; host or cells: U2OS

[2] = biological target: T2, proteins displaced from immobilized biotin-Cmpd 1 pulldowns (U2OS cell lysate) (Homo sapiens, UniProt Q15366); conditions: GN=PCBP2 (Q15366)
T2 construct: endogenous in cells; host or cells: U2OS

[3] = biological target: T3, proteins displaced from immobilized biotin-Cmpd 1 pulldowns (U2OS cell lysate) (Homo sapiens, UniProt Q14980); conditions: GN=NUMA1 (Q14980)
T3 construct: endogenous in cells; host or cells: U2OS

[4] = biological target: T4, proteins displaced from immobilized biotin-Cmpd 1 pulldowns (U2OS cell lysate) (Homo sapiens, UniProt P42357); conditions: GN=HAL (P42357)
T4 construct: endogenous in cells; host or cells: U2OS

[5] = biological target: T5, proteins displaced from immobilized biotin-Cmpd 1 pulldowns (U2OS cell lysate) (Homo sapiens, UniProt Q08945); conditions: GN=SSRP1 (Q08945)
T5 construct: endogenous in cells; host or cells: U2OS

[6] = biological target: T6, proteins displaced from immobilized biotin-Cmpd 1 pulldowns (U2OS cell lysate) (Homo sapiens, UniProt Q02880); conditions: GN=TOP2B (Q02880)
T6 construct: endogenous in cells; host or cells: U2OS

[7] = biological target: T7, proteins displaced from immobilized biotin-Cmpd 1 pulldowns (U2OS cell lysate) (Homo sapiens, UniProt Q9BVJ6); conditions: GN=UTP14A (Q9BVJ6)
T7 construct: endogenous in cells; host or cells: U2OS

[8] = biological target: T8, proteins displaced from immobilized biotin-Cmpd 1 pulldowns (U2OS cell lysate) (Homo sapiens, UniProt P52948); conditions: GN=NUP98 (P52948)
T8 construct: endogenous in cells; host or cells: U2OS

[9] = biological target: T9, proteins displaced from immobilized biotin-Cmpd 1 pulldowns (U2OS cell lysate) (Homo sapiens, UniProt Q5T749); conditions: GN=KPRP (Q5T749)
T9 construct: endogenous in cells; host or cells: U2OS

[10] = biological target: T10, proteins displaced from immobilized biotin-Cmpd 1 pulldowns (U2OS cell lysate) (Homo sapiens, UniProt Q14566); conditions: GN=MCM6 (Q14566)
T10 construct: endogenous in cells; host or cells: U2OS

T7 sequence (Q9BVJ6 whole entry): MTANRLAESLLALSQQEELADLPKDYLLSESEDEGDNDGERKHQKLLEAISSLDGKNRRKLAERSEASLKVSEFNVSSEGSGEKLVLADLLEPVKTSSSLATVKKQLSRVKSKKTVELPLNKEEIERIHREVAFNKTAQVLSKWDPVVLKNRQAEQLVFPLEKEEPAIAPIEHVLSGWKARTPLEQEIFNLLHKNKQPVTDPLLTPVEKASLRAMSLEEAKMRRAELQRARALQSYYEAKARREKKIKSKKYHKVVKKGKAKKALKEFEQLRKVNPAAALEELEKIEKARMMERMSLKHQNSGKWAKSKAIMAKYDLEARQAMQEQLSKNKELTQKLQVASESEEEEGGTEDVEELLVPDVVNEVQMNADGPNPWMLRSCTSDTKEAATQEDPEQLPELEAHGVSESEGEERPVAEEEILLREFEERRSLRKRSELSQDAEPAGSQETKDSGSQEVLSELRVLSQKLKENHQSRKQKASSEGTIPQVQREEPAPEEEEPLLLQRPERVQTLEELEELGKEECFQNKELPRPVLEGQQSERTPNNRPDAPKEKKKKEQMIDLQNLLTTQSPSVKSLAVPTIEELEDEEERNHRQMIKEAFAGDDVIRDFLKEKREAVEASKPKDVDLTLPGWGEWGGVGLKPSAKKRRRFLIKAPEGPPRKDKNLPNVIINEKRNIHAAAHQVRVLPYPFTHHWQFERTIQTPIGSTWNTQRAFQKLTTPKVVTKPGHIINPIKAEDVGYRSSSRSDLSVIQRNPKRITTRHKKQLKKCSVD
T6 sequence (Q02880 whole entry): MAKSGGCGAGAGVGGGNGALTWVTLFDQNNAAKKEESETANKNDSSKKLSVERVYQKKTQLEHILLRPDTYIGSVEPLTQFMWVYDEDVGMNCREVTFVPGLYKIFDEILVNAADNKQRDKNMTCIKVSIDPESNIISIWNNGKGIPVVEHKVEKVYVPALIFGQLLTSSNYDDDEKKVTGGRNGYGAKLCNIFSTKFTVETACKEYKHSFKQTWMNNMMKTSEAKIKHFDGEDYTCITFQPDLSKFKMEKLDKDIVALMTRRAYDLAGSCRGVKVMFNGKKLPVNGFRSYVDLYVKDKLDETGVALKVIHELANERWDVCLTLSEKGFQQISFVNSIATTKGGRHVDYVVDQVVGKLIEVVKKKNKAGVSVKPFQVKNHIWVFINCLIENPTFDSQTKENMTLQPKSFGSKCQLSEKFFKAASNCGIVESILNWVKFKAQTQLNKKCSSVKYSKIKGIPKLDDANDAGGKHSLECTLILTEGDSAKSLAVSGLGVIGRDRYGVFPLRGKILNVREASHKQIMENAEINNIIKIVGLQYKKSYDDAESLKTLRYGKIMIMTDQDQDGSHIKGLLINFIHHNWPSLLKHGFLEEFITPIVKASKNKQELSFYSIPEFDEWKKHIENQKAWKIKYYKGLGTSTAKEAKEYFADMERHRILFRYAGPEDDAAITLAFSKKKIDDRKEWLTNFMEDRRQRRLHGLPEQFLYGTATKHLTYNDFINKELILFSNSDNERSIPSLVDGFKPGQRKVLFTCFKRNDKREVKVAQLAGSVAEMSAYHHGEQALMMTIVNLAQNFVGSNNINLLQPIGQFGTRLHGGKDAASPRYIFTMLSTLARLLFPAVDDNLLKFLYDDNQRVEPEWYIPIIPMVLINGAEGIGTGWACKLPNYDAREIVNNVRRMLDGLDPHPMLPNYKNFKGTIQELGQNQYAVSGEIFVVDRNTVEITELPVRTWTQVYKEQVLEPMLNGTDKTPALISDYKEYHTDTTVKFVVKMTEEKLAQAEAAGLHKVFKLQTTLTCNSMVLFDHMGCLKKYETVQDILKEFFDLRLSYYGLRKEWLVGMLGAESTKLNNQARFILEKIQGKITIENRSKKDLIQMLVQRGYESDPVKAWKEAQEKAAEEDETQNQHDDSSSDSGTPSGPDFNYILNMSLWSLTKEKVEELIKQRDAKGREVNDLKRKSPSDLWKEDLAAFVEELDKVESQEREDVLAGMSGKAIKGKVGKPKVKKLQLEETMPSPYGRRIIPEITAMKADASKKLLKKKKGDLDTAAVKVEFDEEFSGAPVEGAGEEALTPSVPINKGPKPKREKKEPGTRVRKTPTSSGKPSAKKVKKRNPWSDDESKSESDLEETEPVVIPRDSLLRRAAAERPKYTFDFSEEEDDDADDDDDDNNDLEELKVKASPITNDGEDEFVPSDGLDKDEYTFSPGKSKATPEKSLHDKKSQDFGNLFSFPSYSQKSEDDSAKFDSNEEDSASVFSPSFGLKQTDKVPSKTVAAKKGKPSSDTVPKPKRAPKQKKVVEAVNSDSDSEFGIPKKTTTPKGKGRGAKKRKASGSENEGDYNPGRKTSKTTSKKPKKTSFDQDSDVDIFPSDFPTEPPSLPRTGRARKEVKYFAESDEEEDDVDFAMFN
T3 sequence (Q14980 whole entry): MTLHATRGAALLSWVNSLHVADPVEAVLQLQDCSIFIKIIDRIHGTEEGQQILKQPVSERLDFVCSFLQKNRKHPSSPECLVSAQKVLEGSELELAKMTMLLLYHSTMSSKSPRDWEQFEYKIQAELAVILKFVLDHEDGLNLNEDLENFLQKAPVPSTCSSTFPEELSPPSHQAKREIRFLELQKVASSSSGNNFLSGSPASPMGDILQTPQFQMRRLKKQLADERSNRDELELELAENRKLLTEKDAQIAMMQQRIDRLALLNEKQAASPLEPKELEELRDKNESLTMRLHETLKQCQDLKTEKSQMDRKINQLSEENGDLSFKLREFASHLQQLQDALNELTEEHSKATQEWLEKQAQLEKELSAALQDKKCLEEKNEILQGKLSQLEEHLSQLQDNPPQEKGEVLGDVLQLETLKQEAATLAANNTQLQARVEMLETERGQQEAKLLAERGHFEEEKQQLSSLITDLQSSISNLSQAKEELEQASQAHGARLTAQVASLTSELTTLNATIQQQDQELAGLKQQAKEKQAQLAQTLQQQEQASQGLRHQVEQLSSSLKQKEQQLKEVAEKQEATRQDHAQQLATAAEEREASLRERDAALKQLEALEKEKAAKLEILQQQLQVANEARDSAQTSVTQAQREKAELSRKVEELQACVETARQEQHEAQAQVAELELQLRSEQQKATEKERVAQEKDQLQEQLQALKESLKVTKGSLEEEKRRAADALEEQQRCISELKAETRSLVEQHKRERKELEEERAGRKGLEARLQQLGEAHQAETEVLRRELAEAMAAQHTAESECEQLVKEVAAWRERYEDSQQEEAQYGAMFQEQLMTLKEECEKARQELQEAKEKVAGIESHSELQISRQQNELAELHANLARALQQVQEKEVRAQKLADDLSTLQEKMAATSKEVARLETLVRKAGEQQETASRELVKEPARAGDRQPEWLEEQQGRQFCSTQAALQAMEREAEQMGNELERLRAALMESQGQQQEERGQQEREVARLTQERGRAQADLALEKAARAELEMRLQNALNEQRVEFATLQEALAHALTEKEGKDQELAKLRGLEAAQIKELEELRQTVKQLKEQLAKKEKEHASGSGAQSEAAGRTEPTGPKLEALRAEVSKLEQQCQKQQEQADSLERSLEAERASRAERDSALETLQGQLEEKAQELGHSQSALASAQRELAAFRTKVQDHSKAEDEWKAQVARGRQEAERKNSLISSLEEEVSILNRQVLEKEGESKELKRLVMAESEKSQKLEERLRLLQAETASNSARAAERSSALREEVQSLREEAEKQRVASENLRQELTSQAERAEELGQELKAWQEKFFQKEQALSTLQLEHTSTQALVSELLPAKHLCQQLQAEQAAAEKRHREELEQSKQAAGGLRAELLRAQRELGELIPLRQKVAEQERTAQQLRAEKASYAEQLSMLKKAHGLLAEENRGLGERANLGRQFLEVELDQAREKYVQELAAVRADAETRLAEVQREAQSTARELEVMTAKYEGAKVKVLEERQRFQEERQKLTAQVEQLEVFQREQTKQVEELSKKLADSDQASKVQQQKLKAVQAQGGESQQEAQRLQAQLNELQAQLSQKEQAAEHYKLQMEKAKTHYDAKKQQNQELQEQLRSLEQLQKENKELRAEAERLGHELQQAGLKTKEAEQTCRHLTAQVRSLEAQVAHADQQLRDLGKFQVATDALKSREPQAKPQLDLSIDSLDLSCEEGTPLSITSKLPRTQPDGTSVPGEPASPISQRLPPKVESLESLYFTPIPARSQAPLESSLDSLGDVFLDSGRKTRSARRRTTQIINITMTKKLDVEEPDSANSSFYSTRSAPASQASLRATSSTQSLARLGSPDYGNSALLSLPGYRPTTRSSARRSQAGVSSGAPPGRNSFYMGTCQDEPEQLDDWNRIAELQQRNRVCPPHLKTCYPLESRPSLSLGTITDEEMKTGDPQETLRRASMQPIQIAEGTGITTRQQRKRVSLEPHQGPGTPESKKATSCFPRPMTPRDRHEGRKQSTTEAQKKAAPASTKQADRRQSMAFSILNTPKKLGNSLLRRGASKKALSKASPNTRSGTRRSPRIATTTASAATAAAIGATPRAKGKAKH
T2 sequence (Q15366 whole entry): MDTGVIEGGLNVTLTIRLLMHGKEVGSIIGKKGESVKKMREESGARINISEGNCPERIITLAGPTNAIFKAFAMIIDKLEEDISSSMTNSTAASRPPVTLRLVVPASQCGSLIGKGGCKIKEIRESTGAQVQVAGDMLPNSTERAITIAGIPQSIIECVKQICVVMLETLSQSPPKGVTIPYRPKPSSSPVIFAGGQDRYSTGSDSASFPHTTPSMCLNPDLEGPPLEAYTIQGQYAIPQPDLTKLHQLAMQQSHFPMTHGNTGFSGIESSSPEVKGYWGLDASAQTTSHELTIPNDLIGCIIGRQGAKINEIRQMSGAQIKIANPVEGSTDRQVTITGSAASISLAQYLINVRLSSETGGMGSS

Question: What does the source list for `Cn1c2c(c(=N)c3c1CCC3)CCC2` [Compound 1, 4-methyl-2,3,4,5,6,7-hexahydrodicyclopenta[b,e]pyridin-8(1H)-imine]?
Answer: Difference ([1]; Cmpd minus DMSO, -LOG(P-value) 0.840063): -2.23; iBAQ Cmpd ([1]; replicates 1-3): 17.7382 and 14.7804 and 13.8761; Difference ([2]; Cmpd minus DMSO, -LOG(P-value) 0.939549): -2.733; iBAQ Cmpd ([2]; replicates 1-3): 15.8606 and 15.1154 and 18.8903; Difference ([3]; Cmpd minus DMSO, -LOG(P-value) 0.722853): 1.264; iBAQ Cmpd ([3]; replicates 1-3): 20.9325 and 19.3521 and 19.3092; Difference ([4]; Cmpd minus DMSO, -LOG(P-value) 1.13561): -1.443; iBAQ Cmpd ([4]; replicates 1-3): 15.8179 and 16.0542 and 14.8398; Difference ([5]; Cmpd minus DMSO, -LOG(P-value) 0.732843): 0.3628; iBAQ Cmpd ([5]; replicates 1-3): 19.198 and 18.7704 and 18.706; Difference ([6]; Cmpd minus DMSO, -LOG(P-value) 0.742976): 1.036; iBAQ Cmpd ([6]; replicates 1-3): 16.8685 and 16.1972 and 16.6057; Difference ([7]; Cmpd minus DMSO, -LOG(P-value) 0.846922): 1.578; iBAQ Cmpd ([7]; replicates 1-3): 17.3529 and 17.1229 and 16.9849; Difference ([8]; Cmpd minus DMSO, -LOG(P-value) 0.703266): 1.019; iBAQ Cmpd ([8]; replicates 1-3): 16.2576 and 15.2783 and 15.0872; Difference ([9]; Cmpd minus DMSO, -LOG(P-value) 1.8417): -3.732; iBAQ Cmpd ([9]; replicates 1-3): 15.9159 and 16.7213 and 14.3127; Difference ([10]; Cmpd minus DMSO, -LOG(P-value) 0.814851): 1.097; iBAQ Cmpd ([10]; replicates 1-3): 19.4847 and 18.183 and 18.682
